In PMC8621101, “Inhibition of XPO-1 Mediated Nuclear Export through the Michael-Acceptor Character of Chalcones” (Pharmaceuticals, 2021):

Test system: Hap-1 cells
Assay: Cell proliferation assay (IncuCyte confluence), Hap-1
Type: cell-based
Conditions: Homo sapiens, HAP1; Hap-1 chronic myeloid leukemia; 72 h; mean of two independent experiments ± SEM; read-out: IC50 antiproliferative activity Hap-1
Experimental: (§1) Cancer cell lines HCT-116, NCI-H460, HL-60, K-562 and Z-138 were acquired from the American Type Culture Collection (ATCC, Manassas, VA, USA). The DND-41 cell line was purchased from the Deutsche Sammlung von Mikroorganismen und Zellkulturen (DSMZ Leibniz-Institut, Brunswick, Germany), and the HAP-1 cell line was ordered from Horizon Discovery (Horizon Discovery Group, Water Beach, UK). All cell lines were cultured as recommended by the suppliers. Culture media were purchased from Gibco Life Technologies and supplemented with 10% fetal bovine serum (HyClone, GE Healthcare Life Sciences, Chicago, Illinois, USA).
(§2) Adherent cell lines HCT-116, NCI-H460 and Hap-1 cells were seeded at a density between 500 and 1500 cells per well in 384-well tissue culture plates (Greiner). After overnight incubation, cells were treated with different concentrations of the test compounds. Suspension cell lines HL-60, K-562, Z-138 and DND-41 were seeded at densities ranging from 2500 to 5500 cells per well in 384-well culture plates containing the test compounds at the same concentration points.

Structure (SMILES) | IC50
O=C(/C=C/c1ccncc1)c1ccc2ccccc2c1 [Compound 26, (E)-1-(Naphthalen-2-yl)-3-(pyridin-4-yl)prop-2-en-1-one] | 2.3 ± 0.3 µM
COC(=O)/C(=C\c1cncnc1)C(=O)c1cc(OC)cc(OC)c1 [Compound 30, (E)-2-Methoxycarbonyl-1-(3′,5′-dimethoxybenzoyl)-3-(pyrimidin-5′-yl)prop-2-en-1-one] | ≥ 32 µM
COCCOc1cc(OC)cc(C(=O)/C=C/c2cncnc2)c1 [Compound 33, (E)-1-(3′-Methoxy-5′-(2-methoxyethoxy)phenyl)-3-(pyrimidin-5′’-yl)prop-2-en-1-one] | 4.3 ± 2.5 µM
COc1cc(OCC=C(C)C)cc(C(=O)/C=C/c2cncnc2)c1 [Compound 34, (E)-1-(3′-Methoxy-5′-((3-methylbut-2-en-1-yl)oxy)phenyl)-3-(pyrimidin-5′’-yl)prop-2-en-1-one] | 10 ± 2 µM

Test system: HCT-116 cells
Assay: Cell proliferation assay (IncuCyte confluence), HCT-116
Type: cell-based
Conditions: Homo sapiens; HCT-116 colorectal carcinoma; 72 h; mean of two independent experiments ± SEM; read-out: IC50 antiproliferative activity HCT-116
Experimental: as §1, §2

Structure (SMILES) | IC50
O=C(/C=C/c1ccncc1)c1ccc2ccccc2c1 [Compound 26, (E)-1-(Naphthalen-2-yl)-3-(pyridin-4-yl)prop-2-en-1-one] | 1.9 ± 0.4 µM
COC(=O)/C(=C\c1cncnc1)C(=O)c1cc(OC)cc(OC)c1 [Compound 30, (E)-2-Methoxycarbonyl-1-(3′,5′-dimethoxybenzoyl)-3-(pyrimidin-5′-yl)prop-2-en-1-one] | ≥ 22.2 µM
COCCOc1cc(OC)cc(C(=O)/C=C/c2cncnc2)c1 [Compound 33, (E)-1-(3′-Methoxy-5′-(2-methoxyethoxy)phenyl)-3-(pyrimidin-5′’-yl)prop-2-en-1-one] | 34.2 ± 6.5 µM
COc1cc(OCC=C(C)C)cc(C(=O)/C=C/c2cncnc2)c1 [Compound 34, (E)-1-(3′-Methoxy-5′-((3-methylbut-2-en-1-yl)oxy)phenyl)-3-(pyrimidin-5′’-yl)prop-2-en-1-one] | 52.9 ± 3.6 µM

Test system: NCI-H460 cells
Assay: Cell proliferation assay (IncuCyte confluence), NCI-H460
Type: cell-based
Conditions: Homo sapiens; NCI-H460 lung carcinoma; 72 h; mean of two independent experiments ± SEM; read-out: IC50 antiproliferative activity NCI-H460
Experimental: as §1, §2

Structure (SMILES) | IC50
O=C(/C=C/c1ccncc1)c1ccc2ccccc2c1 [Compound 26, (E)-1-(Naphthalen-2-yl)-3-(pyridin-4-yl)prop-2-en-1-one] | 7.7 ± 1.1 µM
COC(=O)/C(=C\c1cncnc1)C(=O)c1cc(OC)cc(OC)c1 [Compound 30, (E)-2-Methoxycarbonyl-1-(3′,5′-dimethoxybenzoyl)-3-(pyrimidin-5′-yl)prop-2-en-1-one] | 17.3 ± 4.6 µM
COCCOc1cc(OC)cc(C(=O)/C=C/c2cncnc2)c1 [Compound 33, (E)-1-(3′-Methoxy-5′-(2-methoxyethoxy)phenyl)-3-(pyrimidin-5′’-yl)prop-2-en-1-one] | 16.9 ± 4.5 µM
COc1cc(OCC=C(C)C)cc(C(=O)/C=C/c2cncnc2)c1 [Compound 34, (E)-1-(3′-Methoxy-5′-((3-methylbut-2-en-1-yl)oxy)phenyl)-3-(pyrimidin-5′’-yl)prop-2-en-1-one] | 34.5 ± 5.2 µM

Test system: DND-41 cells
Assay: Cell proliferation assay (IncuCyte confluence), DND-41
Type: cell-based
Conditions: DND41; DND-41 acute lymphoblastic leukemia; 72 h; mean of two independent experiments ± SEM; read-out: IC50 antiproliferative activity DND-41
Experimental: as §1, §2

Structure (SMILES) | IC50
O=C(/C=C/c1ccncc1)c1ccc2ccccc2c1 [Compound 26, (E)-1-(Naphthalen-2-yl)-3-(pyridin-4-yl)prop-2-en-1-one] | 1.9 ± 0.4 µM
COC(=O)/C(=C\c1cncnc1)C(=O)c1cc(OC)cc(OC)c1 [Compound 30, (E)-2-Methoxycarbonyl-1-(3′,5′-dimethoxybenzoyl)-3-(pyrimidin-5′-yl)prop-2-en-1-one] | 43.2 ± 6.4 µM
COCCOc1cc(OC)cc(C(=O)/C=C/c2cncnc2)c1 [Compound 33, (E)-1-(3′-Methoxy-5′-(2-methoxyethoxy)phenyl)-3-(pyrimidin-5′’-yl)prop-2-en-1-one] | 3.7 ± 1.6 µM
COc1cc(OCC=C(C)C)cc(C(=O)/C=C/c2cncnc2)c1 [Compound 34, (E)-1-(3′-Methoxy-5′-((3-methylbut-2-en-1-yl)oxy)phenyl)-3-(pyrimidin-5′’-yl)prop-2-en-1-one] | 10.1 µM

Test system: HL-60 cells
Assay: Cell proliferation assay (IncuCyte confluence), HL-60
Type: cell-based
Conditions: Homo sapiens; HL-60 acute myeloid leukemia; 72 h; mean of two independent experiments ± SEM; read-out: IC50 antiproliferative activity HL-60
Experimental: as §1, §2

Structure (SMILES) | IC50
O=C(/C=C/c1ccncc1)c1ccc2ccccc2c1 [Compound 26, (E)-1-(Naphthalen-2-yl)-3-(pyridin-4-yl)prop-2-en-1-one] | 0.9 ± 0.2 µM
COC(=O)/C(=C\c1cncnc1)C(=O)c1cc(OC)cc(OC)c1 [Compound 30, (E)-2-Methoxycarbonyl-1-(3′,5′-dimethoxybenzoyl)-3-(pyrimidin-5′-yl)prop-2-en-1-one] | 23.4 ± 1.9 µM
COCCOc1cc(OC)cc(C(=O)/C=C/c2cncnc2)c1 [Compound 33, (E)-1-(3′-Methoxy-5′-(2-methoxyethoxy)phenyl)-3-(pyrimidin-5′’-yl)prop-2-en-1-one] | 10 ± 0.9 µM
COc1cc(OCC=C(C)C)cc(C(=O)/C=C/c2cncnc2)c1 [Compound 34, (E)-1-(3′-Methoxy-5′-((3-methylbut-2-en-1-yl)oxy)phenyl)-3-(pyrimidin-5′’-yl)prop-2-en-1-one] | 40.2 ± 10.1 µM

Test system: K-562 cells
Assay: Cell proliferation assay (IncuCyte confluence), K-562
Type: cell-based
Conditions: Homo sapiens, K562; K-562 chronic myeloid leukemia; 72 h; mean of two independent experiments ± SEM; read-out: IC50 antiproliferative activity K-562
Experimental: as §1, §2

Structure (SMILES) | IC50
O=C(/C=C/c1ccncc1)c1ccc2ccccc2c1 [Compound 26, (E)-1-(Naphthalen-2-yl)-3-(pyridin-4-yl)prop-2-en-1-one] | 4 ± 0.2 µM
COC(=O)/C(=C\c1cncnc1)C(=O)c1cc(OC)cc(OC)c1 [Compound 30, (E)-2-Methoxycarbonyl-1-(3′,5′-dimethoxybenzoyl)-3-(pyrimidin-5′-yl)prop-2-en-1-one] | 42.9 ± 0.1 µM
COCCOc1cc(OC)cc(C(=O)/C=C/c2cncnc2)c1 [Compound 33, (E)-1-(3′-Methoxy-5′-(2-methoxyethoxy)phenyl)-3-(pyrimidin-5′’-yl)prop-2-en-1-one] | 37.5 ± 0.9 µM
COc1cc(OCC=C(C)C)cc(C(=O)/C=C/c2cncnc2)c1 [Compound 34, (E)-1-(3′-Methoxy-5′-((3-methylbut-2-en-1-yl)oxy)phenyl)-3-(pyrimidin-5′’-yl)prop-2-en-1-one] | 4.1 ± 1.9 µM

Test system: Z-138 cells
Assay: Cell proliferation assay (IncuCyte confluence), Z-138
Type: cell-based
Conditions: Homo sapiens; Z-138 non-Hodgkin lymphoma; 72 h; mean of two independent experiments ± SEM; read-out: IC50 antiproliferative activity Z-138
Experimental: as §1, §2

Structure (SMILES) | IC50
O=C(/C=C/c1ccncc1)c1ccc2ccccc2c1 [Compound 26, (E)-1-(Naphthalen-2-yl)-3-(pyridin-4-yl)prop-2-en-1-one] | 1.1 ± 0.4 µM
COC(=O)/C(=C\c1cncnc1)C(=O)c1cc(OC)cc(OC)c1 [Compound 30, (E)-2-Methoxycarbonyl-1-(3′,5′-dimethoxybenzoyl)-3-(pyrimidin-5′-yl)prop-2-en-1-one] | 47.6 ± 1.1 µM
COCCOc1cc(OC)cc(C(=O)/C=C/c2cncnc2)c1 [Compound 33, (E)-1-(3′-Methoxy-5′-(2-methoxyethoxy)phenyl)-3-(pyrimidin-5′’-yl)prop-2-en-1-one] | 1.5 ± 0.2 µM
COc1cc(OCC=C(C)C)cc(C(=O)/C=C/c2cncnc2)c1 [Compound 34, (E)-1-(3′-Methoxy-5′-((3-methylbut-2-en-1-yl)oxy)phenyl)-3-(pyrimidin-5′’-yl)prop-2-en-1-one] | 4.6 ± 2.7 µM

Target: T1, XPO1 (Homo sapiens, UniProt O14980)
T1 construct: the compounds were assayed in a reporter cell line based on the subcellular localization of a XPO1-dependent GFP reporter cargo protein; endogenous in cells; host or cells: HeLa cells stably transfected with the NLSSV40-AcGFP-NESPKI reporter (only the reporter cargo is transfected, not XPO1)
T1 sequence (O14980 whole entry): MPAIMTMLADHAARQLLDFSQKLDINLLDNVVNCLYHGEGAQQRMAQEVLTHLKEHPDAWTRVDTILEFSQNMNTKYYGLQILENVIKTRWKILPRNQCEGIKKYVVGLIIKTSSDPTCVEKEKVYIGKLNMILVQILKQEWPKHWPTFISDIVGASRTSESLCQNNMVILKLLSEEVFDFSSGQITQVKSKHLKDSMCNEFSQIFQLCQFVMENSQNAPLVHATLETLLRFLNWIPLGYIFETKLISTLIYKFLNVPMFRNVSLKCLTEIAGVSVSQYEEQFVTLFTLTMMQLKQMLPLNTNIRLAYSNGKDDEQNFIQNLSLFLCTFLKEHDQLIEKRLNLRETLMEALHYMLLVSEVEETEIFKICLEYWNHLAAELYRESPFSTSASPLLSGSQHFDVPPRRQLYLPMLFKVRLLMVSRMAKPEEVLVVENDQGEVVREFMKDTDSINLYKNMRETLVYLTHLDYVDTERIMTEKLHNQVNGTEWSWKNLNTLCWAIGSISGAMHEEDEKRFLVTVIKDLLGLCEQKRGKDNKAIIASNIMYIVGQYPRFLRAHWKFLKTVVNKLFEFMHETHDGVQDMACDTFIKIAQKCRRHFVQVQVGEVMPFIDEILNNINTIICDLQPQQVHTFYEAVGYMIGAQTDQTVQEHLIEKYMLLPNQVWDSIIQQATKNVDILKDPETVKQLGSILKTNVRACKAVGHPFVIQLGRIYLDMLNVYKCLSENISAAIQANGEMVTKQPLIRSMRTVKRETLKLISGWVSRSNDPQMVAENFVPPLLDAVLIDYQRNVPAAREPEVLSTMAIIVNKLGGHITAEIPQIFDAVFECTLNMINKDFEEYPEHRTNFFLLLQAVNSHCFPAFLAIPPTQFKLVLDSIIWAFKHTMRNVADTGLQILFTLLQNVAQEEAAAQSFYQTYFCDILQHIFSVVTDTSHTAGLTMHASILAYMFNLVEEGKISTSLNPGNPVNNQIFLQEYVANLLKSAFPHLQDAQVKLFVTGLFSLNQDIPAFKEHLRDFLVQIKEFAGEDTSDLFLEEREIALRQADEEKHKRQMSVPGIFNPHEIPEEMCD
Assay: XPO1 phenotypic reporter assay in HeLa NLSSV40-AcGFP-NESPKI cells
Type: cell-based
Conditions: HeLa GFP reporter cell line
Experimental: Stably transfected HeLa NLSSV40-AcGFP-NESPKI were cultured as described in Vercruysse et al.
To study the XPO1-mediated nuclear export, stably transfected HeLa NLSSV40-AcGFP-NESPKI reporter cells were seeded at 8000 cells per well in 96-well all clear tissue culture plates (TPP). After overnight incubation, cells were treated with different doses of compound or solvent (DMSO) for 2 h and then fixed and counterstained with DAPI. Fluorescence was read on an ArrayScan XTI High Content Reader (Thermo Fisher Scientific, Waltham, MA, USA). Nuclear and cytoplasmic compartments were segmented and their average pixel intensities in the green channel were quantitated employing the HCS Studio software. Genedata Screener software was used for dose-response curve fitting, and calculation of EC50 values was based on the percentage of cells having a predominant nuclear localisation (ratio of nuclear to cytoplasmic signal equal or above 1.4) of the reporter construct. Compounds were tested in two independent experiments and represented as mean ± SEM.

Structure (SMILES) | XPO1 inhibition, in words
COC(=O)/C(=C\c1cncnc1)C(=O)c1cc(OC)cc(OC)c1 [Compound 30, (E)-2-Methoxycarbonyl-1-(3′,5′-dimethoxybenzoyl)-3-(pyrimidin-5′-yl)prop-2-en-1-one] | almost inactive against XPO1
COCCOc1cc(OC)cc(C(=O)/C=C/c2cncnc2)c1 [Compound 33, (E)-1-(3′-Methoxy-5′-(2-methoxyethoxy)phenyl)-3-(pyrimidin-5′’-yl)prop-2-en-1-one] | active
COc1cc(OCC=C(C)C)cc(C(=O)/C=C/c2cncnc2)c1 [Compound 34, (E)-1-(3′-Methoxy-5′-((3-methylbut-2-en-1-yl)oxy)phenyl)-3-(pyrimidin-5′’-yl)prop-2-en-1-one] | active

Same assay, conditions: HeLa GFP reporter cell line; 2 h treatment; mean ± SEM of two independent experiments; read-out: XPO1 inhibition IC50

Structure (SMILES) | IC50
NC(=O)C(=Cc1cncnc1)C(=O)c1ccc2ccccc2c1 [Compound 5, reference compound] | 9.18 ± 3.28 µM
O=C(/C=C/c1ccncc1)c1ccc2ccccc2c1 [Compound 26, (E)-1-(Naphthalen-2-yl)-3-(pyridin-4-yl)prop-2-en-1-one] | 10.7 ± 3.24 µM
COC(=O)/C(=C\c1cncnc1)C(=O)c1cc(OC)cc(OC)c1 [Compound 30, (E)-2-Methoxycarbonyl-1-(3′,5′-dimethoxybenzoyl)-3-(pyrimidin-5′-yl)prop-2-en-1-one] | 87.3 ± 4.91 µM
COCCOc1cc(OC)cc(C(=O)/C=C/c2cncnc2)c1 [Compound 33, (E)-1-(3′-Methoxy-5′-(2-methoxyethoxy)phenyl)-3-(pyrimidin-5′’-yl)prop-2-en-1-one] | 12.3 ± 1.28 µM
COc1cc(OCC=C(C)C)cc(C(=O)/C=C/c2cncnc2)c1 [Compound 34, (E)-1-(3′-Methoxy-5′-((3-methylbut-2-en-1-yl)oxy)phenyl)-3-(pyrimidin-5′’-yl)prop-2-en-1-one] | 1.59 ± 0.36 µM

Test system: panel of cancer cell lines
Assay: Antiproliferative activity, panel of cancer cell lines
Type: cell-based
Conditions: panel of cancer cell lines
Experimental: as §2

Structure (SMILES) | Antiproliferative activity, in words
O=C(/C=C/c1ccncc1)c1ccc2ccccc2c1 [Compound 26, (E)-1-(Naphthalen-2-yl)-3-(pyridin-4-yl)prop-2-en-1-one] | low µM range
COC(=O)/C(=C\c1cncnc1)C(=O)c1cc(OC)cc(OC)c1 [Compound 30, (E)-2-Methoxycarbonyl-1-(3′,5′-dimethoxybenzoyl)-3-(pyrimidin-5′-yl)prop-2-en-1-one] | considerably less active than the α-H chalcone 10

Test system: not given
Assay: not given
Conditions: not given

Structure (SMILES) | melting point
O=C(/C=C/c1ccncc1)c1ccc2ccccc2c1 [Compound 26, (E)-1-(Naphthalen-2-yl)-3-(pyridin-4-yl)prop-2-en-1-one] | 135 to 137 °C
COC(=O)/C(=C\c1cncnc1)C(=O)c1cc(OC)cc(OC)c1 [Compound 30, (E)-2-Methoxycarbonyl-1-(3′,5′-dimethoxybenzoyl)-3-(pyrimidin-5′-yl)prop-2-en-1-one] | 81 to 82 °C
